A short description of data set [1]: Serum metabolism of peptides in rat serum. The class given is in vitro ADME. Particulars: for half-life at 500 µg/mL: male, Sprague Dawley, rat, serum. As to the method:
Four month old male Sprague Dawley rats were used as the blood source for the metabolism studies. Blood was collected from left/right jugular veins of the rats using sterile catheters. After a 30 minute incubation on ice, the blood was centrifuged at 1000 rpm for 15 min to separate the serum. Serum was then transferred to clean tubes and stored at −20° C. until use.
Except for dihexa all drug solutions were prepared in HPLC grade water at 5 mg/ml. Stock drugs were kept in powder form and stored at −20° C. Serum metabolism experimental procedure and analysis. Rat blood serum samples were pre-equilibrated at 37° C. and then 10 μL (50 μg) of each drug solution was added to 90 μL of rat serum in 1.5 mL Eppendorf tube maintained at 37° C. At specified time intervals, metabolism was terminated by precipitating proteins with the addition of 1 ml of a solution of acetonitrile (ACN) and acetic acid (9:1, v/v). The terminated reaction mixture was stored in refrigerator (5° C.) overnight and centrifuged (14,000 rpm) for 30 min to remove precipitated proteins. The separated supernatant was dried in vacuum concentrator. The dried samples were reconstituted using 200 μL HPLC mobile phase (10% v/v ACN in water), vortexed briefly, and subjected to HPLC separation and analysis. A serum blank experiment to detect any interfering peaks in the HPLC chromatogram was performed by in an identical manner except that no drug was added. Zero time values for each drug candidate were established by first treating the serum with ACN, processing the sample as described above, adding drug, and then performing HPLC analysis.
The degradation rate of drug was determined by measuring the decrease in area under curve (AUC) at the retention time of drug over time. The AUC obtained from the zero time experiment was considered to represent the “100%” drug concentration and was used to determine the decreased drug concentration at each specified time interval. The semi-logarithmic plot of drug concentration vs. time was generated to determine degradation kinetic constant (k) of the tested drug. The half-life of drug was (t1/2) was calculated by 0.693/k.
Analysis of samples was performed using an HPLC system. The system consisted of a communications bus module, pumps, and a photodiode array detector. Separation was achieved using a C18 (250 mm×4.6 mm id., 5 μm particle size) reverse phase column. The column temperature was set at 40° C. The mobile phase consisted of a mixture of ACN and water with 0.1% TFA and was degassed by ultrasonication. Samples were introduced by manual mode with an injection volume of 250 μL. The drug was eluted with a flow rate of 1 mL/min and detected by PDA detector at […] wavelengths of 215 and 280 nm.

For the next data set, the system named is scopolamine treated rats. Kind of data set: Morris water maze, scopolamine amnesia model. The class given is in vivo, rat. As to conditions: for mean latency to find the pedestal: icv, Dihexa, Hinge 300 pmol, scopolamine 70 nmol. On the procedure: Swim speed was determined from these values.
A further data set relates to hippocampal neurons. The data set is described as follows: Dendritic spine counts (spinogenesis) in mRFP-β-actin transfected dissociated hippocampal neurons. The class given is cell-based, rat. Particulars: dose-response; 10^-8 and 10^-10 M. As to the method:
Hippocampal neurons (2×10^5 cells per square cm) were cultured from P1 Sprague Dawley rats on plates coated with poly-L-lysine from Sigma (St. Louis, Mo.; molecular weight 300,000). […] Each experiment was repeated at least three times using independent culture preparations. […] Hippocampal neurons (2×10^5 cells per square centimeter) were cultured from P1-2 Sprague Dawley rats on plates coated with poly-L-lysine from Sigma (St. Louis, Mo.; molecular weight 300,000). Hippocampal neurons were maintained in Neurobasal A media from Invitrogen (Carlsbad, Calif.) supplemented with B27 from Invitrogen, 0.5 mM L-glutamine, and […] cytosine-D-arabinofuranoside from Sigma added at 2 days in vitro. Hippocampal neurons were then cultured a further 3-7 days, at which time they were either transfected or treated with various pharmacological reagents as described in the text or figure legends. Neurons were transfected with mRFP-β-actin on day in vitro 6 […] using LipofectAMINETM 2000 (Invitrogen) according to the manufacturer's protocol. […] On DIV7 the cells were treated with vehicle (H20) or peptides (as described in the text) added to media. […] Five 50 μm long segments of dendrite from at least 10 neurons per data point were analyzed for each data point reported. Each experiment was repeated at least three times using independent culture preparations. […] A target sequence for c-Met was designed using RNAi central design program (see the website located at […].edu/). The target sequence […] NO: 2) was inserted into pSUPER vector (Oligoengine, Seattle Wash.) which drives endogenous production of shRNA under the H1 promoter. The shRNA was transfected into cells using the lipofectamine method described above. Verification of receptor knockdown was done by creating a c-[…]-Myc tagged gene product using the Gateway cloning system (Invitrogen). The Met protein coding sequence was cloned from rat whole brain cDNA using primers obtained from Integrated DNA Technologies, Inc. The amplified product was gel purified and a band corresponding to 190 kDa band excised and cloned into a […] destination vector (Gateway). Hippocampal neurons (2×10^5 cells per square cm) were cultured from P1 Sprague Dawley rats on plates coated with poly-L-lysine from Sigma (St. Louis, Mo.; molecular weight […]).

Where [2] appears, read: rat serum, 37° C., Mean +/− SD, N = 3, read-out: Half-Life (min), serum stability.

“Also recorded” adds a separate entry of the source. Structures can show the parent of a compound that is named as a salt. Where two headings read alike, the source gives them in different places. Where a SMILES comes first, the peptide text is derived from it. [ ]: non-standard residue; d: D form. dNle = CCCC[C@@H](N)C(=O)O; Nle = CCCC[C@H](N)C(=O)O; GABA = NCCCC(=O)O

Regarding `CCCC[C@@H](N)C(=O)N[C@@H](Cc1ccc(O)cc1)C(=O)N[C@H](C(=O)O)[C@@H](C)CC` [D-Nle-Tyr-Ile] (H-[dNle]-Tyr-Ile-OH), in data set [1] (setting [2]), the half-life at 500 µg/mL is 225 min.

As to `CN1[C@@H]2C[C@@H](OC(=O)[C@H](CO)c3ccccc3)C[C@H]1[C@@H]1O[C@@H]12` [scopolamine, Scopolamine hydrobromide, reference compound], the “mean latency to find the pedestal” value in the data set with scopolamine treated rats (day one of training) is on record as 114.7 s; in the data set on scopolamine treated rats (final day of training (day 8)), 84.8 s; with scopolamine treated rats (fourth day of training) it was 102.4 s.

On to `CC[C@H](C)[C@H](NC(=O)[C@H](Cc1ccc(O)cc1)NC(=O)CCCN)C(=O)O` [GABA-Tyr-Ile] (H-[GABA]-Tyr-Ile-OH; N-terminus and C-terminus assumed), for which the “time spent in the target quadrant, day 9 probe trial” value with scopolamine treated rats (scopolamine icv 70 nmol, analog icv 1 nmol) is “different than all the other treated groups”; in the data set on scopolamine treated rats (scopolamine icv 70 nmol, analog icv 1 nmol, listed as GABA-Tyr), “superior to all the other compound treated groups”. Moreover, the “latency to find the submerged platform in the Morris water maze” value in the data set with scopolamine treated rats (scopolamine icv 70 nmol, analog icv 1 nmol, 8 days) is reported as “exhibited the best performance among the compound treated groups; also recorded: not significantly different than the vehicle control group”. Further, the half-life at 500 µg/mL in data set [1] (setting [2]) amounted to 946 min. In addition, the “spine numbers, stabilized AngIV analogs (FIG. 31)” value in the data set with hippocampal neurons was “did not appear to be the most potent generator of new dendritic spines”.

Take `CCCC[C@H](N)C(=O)N[C@@H](Cc1ccc(O)cc1)C(=O)N[C@H](C(=O)N[C@@H](Cc1c[nH]cn1)C(N)=O)[C@@H](C)CC` [Nle-Tyr-Ile-His-NH2] (H-[Nle]YIH-NH2): in data set [1] (setting [2]), the half-life at 500 µg/mL stood at 23 min.

As to `CCCC[C@H](NC(C)=O)C(=O)N[C@@H](Cc1ccc(O)cc1)C(=O)N[C@H](C(=O)N[C@@H](Cc1c[nH]cn1)C(=O)O)[C@@H](C)CC` [N-acetyl-Nle-Tyr-Ile-His] (Ac-[Nle]YIH-OH), the half-life at 500 µg/mL in data set [1] (setting [2]) was 115 min.

With `CCCC[C@H](N)C(=O)N[C@@H](Cc1ccc(O)cc1)C(=O)N[C@H](C(=O)N[C@@H](Cc1cnc[nH]1)C(=O)N1CCC[C@H]1C(=O)N[C@@H](Cc1ccccc1)C(=O)O)[C@@H](C)CC` [Nle1-AngIV, Norleucine-YIHPF, reference compound] (H-[Nle]YIHPF-OH), the half-life at 500 µg/mL in data set [1] (setting [2]) came to 1.42 min; in data set [1] (read-out: t1/2 in rat serum), 1.4 min. Moreover, the “Half-Life (min), serum stability” value in data set [1] (rat serum, 37° C., Mean +/− SD, N = 3) is recorded as “less than two minutes”.

For the origin of these results see US9051351B2, “Hepatocyte growth factor mimics as therapeutic agents” (Washington State University, priority 2011, dated 2015).
